# “And” between values parts separate entries of the source, which are not always exact repeats. Equal values may be shown once. Read-outs that look alike come from different tables or passages of the source.
# What was measured:
# [1] = test system: clinical drug-susceptible and drug-resistant M. tuberculosis strains; experiment: microbe, parasite or virus in culture; assay type: cell-based; details: Mycobacterium tuberculosis; for MIC90: H37RV
# [2] = test system: DG70-resistant mutants of H37Rv; assay type: cell-based, Mycobacterium tuberculosis
Structure (SMILES),MIC [1],MIC90 ([1]; read-out: MIC90),DG70 MIC90 [2],MIC in Mtb P3 V20A [2],MIC in Mtb P7 F118L [2],MIC90 [1]
"COc1ccc(-c2cc(NC(=O)c3ccc(F)cc3Cl)ccc2OC)cc1 [DG70, 2-chloro-N-(4',6-dimethoxy-[1,1'-biphenyl]-3-yl)-4-fluorobenzamide]",1.2 to 9.6 µg/mL,4.8 µg/mL,>80 µg/mL and 40 µg/mL,>80 µg/mL,40 µg/mL,
"NNC(=O)c1ccncc1 [INH, isoniazid]",,,,,,0.05 µg/mL
COc1ccc(-c2cccc(NC(=O)c3ccc(F)cc3Cl)c2)cc1 [JSF-2907],,,,>80 µg/mL,>80 µg/mL,
COc1ccc(-c2cc(NC(=O)c3ccccc3Cl)ccc2OC)cc1 [JSF-2908],,,,>40 µg/mL,>40 µg/mL,
COc1ccc(-c2cc(NC(=O)c3ccc(F)cc3)ccc2OC)cc1 [JSF-2909],,,,>80 µg/mL,>80 µg/mL,
O=C(Nc1cccc(-c2ccccc2)c1)c1ccc(F)cc1Cl [JSF-2910],,,,>40 µg/mL,>40 µg/mL,
COc1ccc(-c2cc(NC(=O)c3ccccc3)ccc2OC)cc1 [JSF-2912],,,,>40 µg/mL,>40 µg/mL,
COc1ccc(NC(=O)c2ccc(F)cc2Cl)cc1 [JSF-2926],,,,40 µg/mL,40 µg/mL,
COc1ccc(-c2cc(N(C)C(=O)c3ccc(F)cc3Cl)ccc2OC)cc1 [JSF-2949],,,,>40 µg/mL,>40 µg/mL,
O=C(Nc1ccc(O)c(-c2ccc(O)cc2)c1)c1ccc(F)cc1Cl [JSF-2950],,,,>40 µg/mL,>40 µg/mL,
COc1ccc(-c2cc(NCc3ccc(F)cc3Cl)ccc2OC)cc1 [JSF-2951],,,,>80 µg/mL,>80 µg/mL,
COc1ccc(NC(=O)c2ccc(F)cc2Cl)cc1-c1ccccc1 [JSF-2971],,,,40 µg/mL,40 µg/mL,

# Source: article PMC5312080 (mBio, 2017)
